The values below come from PubChem BioAssay (NCI).

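Values below derive from 48-hour exposures of cells grown in 96-well plates, with endpoints linearly interpolated between the two concentrations bracketing the appropriate inhibition level. GI50: concentration for 50% inhibition of growth. TGI is the concentration that stops growth completely.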 A value given as a limit tells only on which side of the number the result lay.

The first test concerns OVCAR-8 ovarian. The test can be described thus: inhibition of tumour cell growth, NCI panel, 48 h.
`CN(C(=O)c1ccc(C(F)(F)F)cc1)c1ccc(Oc2ccc3c(c2)cc(C(=O)N2CCN(Cc4ccc(OC(F)F)cc4)CC2)n3C)nc1`: the GI50 was 1.71 µM and the TGI was above 100 µM.

With `COc1ccc(S(=O)(=O)NNS(C)(=O)=O)cc1`, the TGI was above 100 µM.

For `Nc1ncnc2c1nnn2C1OC(CO)C(O)C1O` (centres undefined), the TGI stood at 8.97 µM.

Regarding `CN1CCN(CCCn2c(=O)c3sc4ncccc4c3n3nnc(-c4ccccc4)c23)CC1`, the GI50 is 7.83 µM and the TGI turned out to be 15.3 µM.

`CC(=O)OC1COC(n2ccc3cc(Br)c([N+](=O)[O-])cc32)C(OC(C)=O)C1OC(C)=O` (centres undefined) had a TGI of 82.1 µM.

`NC1(C(=O)OCc2ccccc2)CCCC1` had a TGI of 37.4 µM.

Regarding `O=C(/C=C/c1ccc(Cl)cc1)c1ccc(Nc2ccnc3cc(Cl)ccc23)cc1`, the GI50 is above 100 µM and the TGI was above 100 µM.

Regarding `CCCCCCCC(=O)SCC/C=C/[C@@H]1CC(=O)NCc2cc(ccn2)C2=N[C@@](C)(CS2)C(=O)N[C@@H](C(C)C)C(=O)O1`, the GI50 was 0.0109 µM and the TGI is above 33.3 µM.

As for `CSc1nc(NC2OCC(OC(C)=O)C(OC(C)=O)C2OC(C)=O)c(N=CC=Nc2c(NC3OCC(OC(C)=O)C(OC(C)=O)C3OC(C)=O)nc(SC)[nH]c2=O)c(=O)[nH]1` (centres undefined), the TGI is above 100 µM.

For `Cn1cnc([N+](=O)[O-])c1Sc1nc2ccccc2[nH]1`, the TGI is 30.4 µM.

In the case of `N#CC(C#N)=CNC(N)=S`, the TGI was above 100 µM.

As for `C[C@@H]1CCC2[C@@H](C)[C@@H](OCC(CO[C@H]3OC4O[C@@]5(C)CC[C@H]6[C@H](C)CCC([C@H]3C)[C@@]46OO5)OC(=O)CCC(=O)O)OC3O[C@@]4(C)CC[C@@H]1[C@]32OO4` (some centres undefined), the GI50 was 0.511 µM and the TGI amounted to 27.2 µM.

Compound `COc1cc(OC)cc(-c2cc(=O)c3c(OC)c(OC)c(OC)c(OC)c3o2)c1` yielded a TGI above 100 µM.

In turn, `COc1cc2c(c(OC)c1OC)-c1ccc(OC)c(=O)cc1C(NC(=O)c1ccc(N=[N+]=[N-])cc1)CC2` (centres undefined) returned a TGI of 1.02 µM.

With `O=C(/C=C\c1ccc(Cl)c(Cl)c1)c1ccc(Cl)cc1Cl`, the TGI was 38 µM.

`CCOC(=O)C(=C=C=C(c1ccccc1)c1ccccc1)C(=O)OCC` came in with a TGI of 50.3 µM.

For the compound `CC(C)=Cc1cc(C(=O)Nc2ccc(Cl)c(Cl)c2)nc(N)n1`, the TGI was above 100 µM.

For `COc1cccc(-c2nc(-c3ccc(NC(=O)C(C)C)cc3)[nH]c2-c2ccnc(Br)c2)c1`, the GI50 is 3.61 µM and the TGI is above 100 µM.

On to `O=C(CSc1ccc(Cl)cc1)Nc1ccc(-c2nc3ccccc3s2)c(Cl)c1`, for which the GI50 is 5.09 µM and the TGI is above 100 µM.

The next test deals with A498 renal. The test can be described thus: inhibition of tumour cell growth, NCI panel, 48 h.
With `CN(C(=O)c1ccc(C(F)(F)F)cc1)c1ccc(Oc2ccc3c(c2)cc(C(=O)N2CCN(Cc4ccc(OC(F)F)cc4)CC2)n3C)nc1`, the GI50 was 0.729 µM and the TGI is above 100 µM.

In the case of `COc1ccc(S(=O)(=O)NNS(C)(=O)=O)cc1`, the TGI was above 100 µM.

As to `Nc1ncnc2c1nnn2C1OC(CO)C(O)C1O` (centres undefined), the TGI is 5.68 µM.

Turning to `CN1CCN(CCCn2c(=O)c3sc4ncccc4c3n3nnc(-c4ccccc4)c23)CC1`, the GI50 was 0.159 µM and the TGI amounted to 9.37 µM.

Consider `CC(=O)OC1COC(n2ccc3cc(Br)c([N+](=O)[O-])cc32)C(OC(C)=O)C1OC(C)=O` (centres undefined), for which the TGI came to 78.9 µM.

Regarding `NC1(C(=O)OCc2ccccc2)CCCC1`, the TGI is above 100 µM.

On to `O=C(/C=C/c1ccc(Cl)cc1)c1ccc(Nc2ccnc3cc(Cl)ccc23)cc1`, for which the GI50 is above 44.7 µM and the TGI is above 71.8 µM.

As for `CCCCCCCC(=O)SCC/C=C/[C@@H]1CC(=O)NCc2cc(ccn2)C2=N[C@@](C)(CS2)C(=O)N[C@@H](C(C)C)C(=O)O1`, the GI50 was 0.00591 µM and the TGI turned out to be 0.0418 µM.

For the compound `CSc1nc(NC2OCC(OC(C)=O)C(OC(C)=O)C2OC(C)=O)c(N=CC=Nc2c(NC3OCC(OC(C)=O)C(OC(C)=O)C3OC(C)=O)nc(SC)[nH]c2=O)c(=O)[nH]1` (centres undefined), the TGI was above 100 µM.

The compound `Cn1cnc([N+](=O)[O-])c1Sc1nc2ccccc2[nH]1` registered a TGI of 55.9 µM.

As for `N#CC(C#N)=CNC(N)=S`, the TGI was above 100 µM.

In the case of `C[C@@H]1CCC2[C@@H](C)[C@@H](OCC(CO[C@H]3OC4O[C@@]5(C)CC[C@H]6[C@H](C)CCC([C@H]3C)[C@@]46OO5)OC(=O)CCC(=O)O)OC3O[C@@]4(C)CC[C@@H]1[C@]32OO4` (some centres undefined), the GI50 was 13.8 µM and the TGI is 31.3 µM.

As to `COc1cc(OC)cc(-c2cc(=O)c3c(OC)c(OC)c(OC)c(OC)c3o2)c1`, the TGI stood at 89.6 µM.

`COc1cc2c(c(OC)c1OC)-c1ccc(OC)c(=O)cc1C(NC(=O)c1ccc(N=[N+]=[N-])cc1)CC2` (centres undefined) came in with a TGI of 0.0847 µM.

As to `O=C(/C=C\c1ccc(Cl)c(Cl)c1)c1ccc(Cl)cc1Cl`, the GI50 is above 100 µM and the TGI is above 100 µM.

`CCOC(=O)C(=C=C=C(c1ccccc1)c1ccccc1)C(=O)OCC`: the TGI was determined as 78.9 µM.

Consider `c1ccc(COc2cccc3ccc[n+](Cc4ccccc4)c23)cc1`, for which the TGI is 97.8 µM.

As to `CC(C)=Cc1cc(C(=O)Nc2ccc(Cl)c(Cl)c2)nc(N)n1`, the TGI was above 100 µM.

Turning to `COc1cccc(-c2nc(-c3ccc(NC(=O)C(C)C)cc3)[nH]c2-c2ccnc(Br)c2)c1`, the GI50 is 1.84 µM and the TGI came out at 6.62 µM.

As to `O=C(CSc1ccc(Cl)cc1)Nc1ccc(-c2nc3ccccc3s2)c(Cl)c1`, the GI50 is 1.98 µM and the TGI stood at 6.34 µM.

The test system of the next test is MALME-3M melanoma. The test can be described thus: inhibition of tumour cell growth, NCI panel, 48 h.
On to `CN(C(=O)c1ccc(C(F)(F)F)cc1)c1ccc(Oc2ccc3c(c2)cc(C(=O)N2CCN(Cc4ccc(OC(F)F)cc4)CC2)n3C)nc1`, for which the GI50 was above 34.9 µM and the TGI was above 100 µM.

The compound `COc1ccc(S(=O)(=O)NNS(C)(=O)=O)cc1` gave a TGI above 100 µM.

On to `Nc1ncnc2c1nnn2C1OC(CO)C(O)C1O` (centres undefined), for which the TGI stood at 4.62 µM.

In the case of `CN1CCN(CCCn2c(=O)c3sc4ncccc4c3n3nnc(-c4ccccc4)c23)CC1`, the GI50 was 9.41 µM and the TGI amounted to 17.9 µM.

For the compound `CC(=O)OC1COC(n2ccc3cc(Br)c([N+](=O)[O-])cc32)C(OC(C)=O)C1OC(C)=O` (centres undefined), the TGI came out at 72.5 µM.

`NC1(C(=O)OCc2ccccc2)CCCC1` came in with a TGI of 31.8 µM.

Consider `O=C(/C=C/c1ccc(Cl)cc1)c1ccc(Nc2ccnc3cc(Cl)ccc23)cc1`, for which the GI50 is above 100 µM and the TGI was above 100 µM.
